Broadly, the solubility is the concentration that dissolves in the medium under given conditions. Low readings indicate little dissolved substance, high ones much dissolved substance.

The source of these data is patent US8299252B2, “Pyrazolopyridine and pyrrolopyridine multikinase inhibitors” (Chugai Seiyaku Kabushiki Kaisha, priority 2005, dated 2012).

In brackets after ≈: the same amount, converted by molar mass.

Data set [1] has as its system human colon cancer cell line HCT116 cells. The data set is described as follows: Cell proliferation inhibitory activity, HCT116. Format: cell-based. The note with it: for IC50: Homo sapiens, HCT-116, read-out: 50% proliferation inhibitory concentration (IC50 value) HCT116, HCT116, 72 hours, WST-8. How it is done:
(§1) The compounds according to the present invention were measured for cancer cell proliferation inhibitory activity and human umbilical vein endothelial cell (HUVEC) proliferation inhibitory activity.
(§2) Test compounds were serially diluted with dimethyl sulfoxide and then diluted 50 times with Ca^2+- and Mg^2+-free phosphate-buffered saline, and 20 μL of each of the resulting solution was dispensed into a 96-well plate. […] Each cell suspension contains approximately 3000 cells/180 μL. These cell suspensions were dispensed to the plate containing the test compounds at 180 μL/well and incubated in a 5% carbon dioxide gas incubator at 37° C. for 72 hours. 20 μL of WST-8 (HCT116, Dojin) or WST-1 (HUVEC, Roche Diagnostics) was added to each well, and absorbance at 450 nm (reference wavelength: 650 nm) was measured.
Background: Tetrazolium assays rely on reduction of a dye to a coloured formazan, in cell work by metabolically active cells.

In data set [2] the test system is human umbilical vein endothelial cells (HUVEC), VEGF-dependent proliferation. The data set is described as follows: VEGF-dependent HUVEC proliferation inhibition assay. Conditions: read-out: 50% proliferation inhibitory concentration (IC50 value) HUVEC (VEGF-dependent), 20 ng/mL of VEGF, 72 hours, WST-1. Format: cell-based. As to the method: as §1, §2
Data set [3] concerns human umbilical vein endothelial cells (HUVEC), VEGF-independent proliferation. The data set is described as follows: VEGF-independent HUVEC proliferation inhibition assay. The class given is cell-based. Conditions: read-out: 50% proliferation inhibitory concentration (IC50 value) HUVEC (VEGF-independent), vascular endothelial cell growth-promoting agent and heparin, 72 hours, WST-1. How it is done:
as §1, §2

Data set [4] concerns the target T1, FLT3 intracellular domain protein (Homo sapiens, UniProt P36888).
T1 sequence (P36888 564-993 limits assumed): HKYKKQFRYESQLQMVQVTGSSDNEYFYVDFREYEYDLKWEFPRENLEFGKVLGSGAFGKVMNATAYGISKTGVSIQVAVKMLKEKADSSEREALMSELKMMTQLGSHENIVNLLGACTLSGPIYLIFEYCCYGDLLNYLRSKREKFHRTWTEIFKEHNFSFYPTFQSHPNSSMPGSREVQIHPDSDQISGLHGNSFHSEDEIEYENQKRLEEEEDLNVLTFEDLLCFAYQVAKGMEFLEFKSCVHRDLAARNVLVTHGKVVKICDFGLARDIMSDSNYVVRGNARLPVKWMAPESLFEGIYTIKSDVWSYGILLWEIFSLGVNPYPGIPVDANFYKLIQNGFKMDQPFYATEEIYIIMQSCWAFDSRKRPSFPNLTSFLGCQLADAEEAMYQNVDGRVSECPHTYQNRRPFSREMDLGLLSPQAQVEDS
The data set is described as follows: Flt3 enzyme inhibition test (HTRF). The note with it: phosphorylation of biotinylated peptide. The class given is biochemical. As to the method: The FLT3 inhibitory activity was measured by the activity of FLT3 intracellular domain protein inhibiting for phosphorylation of a biotinylated peptide ([…]).
Background: Time-resolved FRET reads energy transfer from a long-lived donor to a nearby acceptor.

Data set [5] concerns the target Raf-1 (Homo sapiens, UniProt P04049). Briefly: Raf-1 enzyme inhibition assay (MEK-1 phosphorylation, HTRF). The class given is biochemical. The note with it: for IC50: phosphorylation of His6-MEK-1. How it is done: (§3) The compounds according to the present invention were measured for Raf-1 and KDR enzyme inhibitory activities.
(§4) The Raf-1 inhibitory activity was measured by the activity of Raf-1 protein for inhibiting phosphorylation of MEK-1 protein having six histidine residues (His6) fused to the N-terminus thereof. […] The KDR inhibitory activity was measured by the activity of KDR intracellular domain protein for inhibiting phosphorylation of a biotinylated peptide ([…]).

Data set [6] deals with KDR intracellular domain protein (Homo sapiens, UniProt P35968). Briefly: KDR enzyme inhibition assay (biotinylated peptide phosphorylation, HTRF). The class given is biochemical. The note with it: phosphorylation of biotinylated peptide. How it is done:
as §3, §4

Data set [7] is described as follows: Solubility in fasted state simulated intestinal fluid. The class given is physicochemical. The note with it: pH 6.5, fassif, kinetic from dmso stock, fasted state simulated intestinal fluid (pH6.5), 37° C. As to the method: 2 μL of each dimethyl sulfoxide solutions containing test compounds were dispensed into wells of a 96-well plate, and 200 μL of fasted state simulated intestinal fluid (pH6.5) was added to each well. The plate was shaken at 37° C. for 20 hours. The solution was filtered through a membrane filter, and 101 μL of the filtrate was transferred to a UV plate, followed by addition of 100 μL of a solution mixture of ethanol:water=2:1 thereto. Separately, as a standard, 101 μL of a solution prepared by 2 μL of a dimethyl sulfoxide solution, 4 μL of dimethyl sulfoxide, 400 μL of ethanol, and 200 μL of water was transferred to a UV plate, and 100 μL of fasted state simulated intestinal fluid (pH6.5) was added thereto. The solubility was calculated by the following expression: Solubility=[(absorbance of test solution)−blank]/[(absorbance of standard solution)−blank]×165 μM (165 μM is the concentration of the standard solution) Composition of the fasted state simulated intestinal fluid (pH6.5)
The composition was prepared in compliance with the description in E. Galia, et al., Pharm. Res. 1998, 698.
Taurocholic acid (161 mg), L-α-phosphatidylcholine (59 mg), potassium dihydrogen phosphate (0.39 g), and potassium chloride (0.77 g) were added to about 90 mL of water. The resulting solution was adjusted to a pH of 6.5 with a sodium hydroxide aqueous solution and then diluted to a volume of 100 mL with water. The solution was filtered through a membrane filter.

Sequence of KDR intracellular domain protein (P35968 786-1356 limits assumed): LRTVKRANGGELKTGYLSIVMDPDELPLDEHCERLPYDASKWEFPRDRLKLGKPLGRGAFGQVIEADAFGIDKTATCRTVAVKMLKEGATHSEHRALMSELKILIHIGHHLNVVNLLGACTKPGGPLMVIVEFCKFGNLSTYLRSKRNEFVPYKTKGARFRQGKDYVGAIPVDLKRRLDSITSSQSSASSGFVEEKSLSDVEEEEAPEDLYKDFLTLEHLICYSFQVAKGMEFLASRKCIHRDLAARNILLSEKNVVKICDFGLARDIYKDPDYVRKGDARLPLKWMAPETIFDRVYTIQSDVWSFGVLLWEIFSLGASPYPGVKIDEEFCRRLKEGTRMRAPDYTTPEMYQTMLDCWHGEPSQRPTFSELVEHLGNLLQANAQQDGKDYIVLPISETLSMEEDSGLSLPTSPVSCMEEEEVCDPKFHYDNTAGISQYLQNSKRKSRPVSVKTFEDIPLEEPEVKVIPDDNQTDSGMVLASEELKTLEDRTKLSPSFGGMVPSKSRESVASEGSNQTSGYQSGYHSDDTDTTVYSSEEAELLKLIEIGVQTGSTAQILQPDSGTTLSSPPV
Sequence of Raf-1 (P04049 whole entry, the tested form may be a part): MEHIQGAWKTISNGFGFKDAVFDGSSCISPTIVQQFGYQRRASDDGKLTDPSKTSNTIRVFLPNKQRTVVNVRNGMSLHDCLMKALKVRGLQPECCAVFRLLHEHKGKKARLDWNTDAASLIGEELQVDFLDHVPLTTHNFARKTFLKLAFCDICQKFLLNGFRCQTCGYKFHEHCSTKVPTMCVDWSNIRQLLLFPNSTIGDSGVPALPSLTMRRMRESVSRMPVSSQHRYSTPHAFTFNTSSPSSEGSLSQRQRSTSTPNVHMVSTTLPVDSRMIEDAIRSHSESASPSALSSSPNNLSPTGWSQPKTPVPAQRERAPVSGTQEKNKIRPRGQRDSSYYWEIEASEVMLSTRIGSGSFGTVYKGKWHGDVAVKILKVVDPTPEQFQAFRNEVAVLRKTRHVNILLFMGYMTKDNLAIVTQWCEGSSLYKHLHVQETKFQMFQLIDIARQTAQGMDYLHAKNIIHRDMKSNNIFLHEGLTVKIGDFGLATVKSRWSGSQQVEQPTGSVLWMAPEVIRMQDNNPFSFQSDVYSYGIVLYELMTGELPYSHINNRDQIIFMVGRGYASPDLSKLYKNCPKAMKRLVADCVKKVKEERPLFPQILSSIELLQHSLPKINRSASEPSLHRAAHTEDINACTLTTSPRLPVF

`COCCOc1cccc2cc(NC(=O)Nc3ccc(Oc4ccnc5[nH]ccc45)cc3)ccc12` [Compound 3, 1-[5-(2-Methoxyethoxy)naphthalen-2-yl]-3-[4-(1H-pyrrolo[2,3-b]pyridin-4-yloxy)phenyl]urea]: the IC50 in data set [1] worked out at 3400 nM; in data set [2], 3.7 nM; in data set [3] it was 4400 nM; in data set [4], 15 nM.

With `O=C(Nc1ccc(Oc2ccnc3[nH]ccc23)cc1)Nc1cc(OC2CCOCC2)cc(C(F)(F)F)c1` [Compound 9, 1-[4-(1H-Pyrrolo[2,3-b]pyridin-4-yloxy)phenyl]-3-[3-(tetrahydro-pyran-4-yloxy)-5-(trifluoromethyl)phenyl]urea], the IC50 is 1700 nM in data set [1]; 30 nM in data set [2]; 1800 nM in data set [3]; 65 nM in data set [5]; 2.2 nM in data set [6].

On to `O=C(Nc1ccc(Oc2ccnc3[nH]ccc23)cc1)Nc1ccc(OCC(F)(F)F)c(C(F)(F)F)c1` [Compound 13, 1-[4-(1H-Pyrrolo[2,3-b]pyridin-4-yloxy)phenyl]-3-[4-(2,2,2-trifluoro-ethoxy)-3-(trifluoromethyl)phenyl]urea], for which the results for the IC50 in data set [1], in data set [2] and in data set [3] were 3100 nM, 7.4 nM and 1200 nM, respectively. In data set [7], this molecule gave a solubility at 20 h of 15 µg/mL (≈ 29.4 µM).

`O=C(Nc1ccc(Oc2ccnc3[nH]ccc23)cc1)Nc1ccc(OC(F)(F)F)c(C(F)(F)F)c1` [Compound 20, 1-[4-(1H-Pyrrolo[2,3-b]pyridin-4-yloxy)phenyl]-3-[4-trifluoromethoxy-3-(trifluoromethyl)phenyl]urea] yielded a solubility at 20 h in data set [7] of 25 µg/mL (≈ 50.4 µM).

Consider `O=C(Nc1ccc(Oc2ccnc3[nH]ncc23)cc1)Nc1ccc(CCF)c(C(F)(F)F)c1` [Compound 23, 1-[4-(2-Fluoroethyl)-3-(trifluoromethyl)phenyl]-3-[4-(1H-pyrazolo[3,4-b]pyridin-4-yloxy)phenyl]urea], for which the IC50 stood at 19 nM in data set [5], 3.7 nM in data set [6] and 6.9 nM in data set [4].

In turn, `O=C(Nc1ccc(Oc2ccnc3[nH]ncc23)cc1)Nc1cc(CCF)cc(C(F)(F)F)c1` [Compound 24, 1-[3-(2-Fluoroethyl)-5-(trifluoromethyl)phenyl]-3-[4-(1H-pyrazolo[3,4-b]pyridin-4-yloxy)phenyl]urea] returned a solubility at 20 h in data set [7] of 19 µg/mL (≈ 41.4 µM). For the same molecule, the IC50 in data set [4] was 18 nM.

Turning to `O=C(Nc1ccc(Oc2ccnc3[nH]ccc23)cc1)Nc1cc(CCCF)cc(C(F)(F)F)c1` [Compound 29, 1-[3-(3-Fluoropropyl)-5-(trifluoromethyl)phenyl]-3-[4-(1H-pyrrolo[2,3-b]pyridin-4-yloxy)phenyl]urea], the IC50 in data set [1] worked out at 1600 nM; in data set [2], 8 nM; in data set [3], 1100 nM; in data set [5] it was 82 nM; in data set [6] it was 9.1 nM.

As for `O=C(Nc1ccc(Oc2ccnc3[nH]ccc23)cc1)Nc1cc(CCC(F)F)cc(C(F)(F)F)c1` [Compound 32, 1-[3-(3,3-Difluoropropyl)-5-(trifluoromethyl)phenyl]-3-[4-(1H-pyrrolo[2,3-b]pyridin-4-yloxy)phenyl]urea], the IC50 in data set [1] was determined as 1500 nM; in data set [2], 15 nM; in data set [3], 1200 nM; in data set [5], 62 nM; in data set [6], 0.95 nM.

In the case of `O=C(Nc1ccc(Oc2ccnc3[nH]ccc23)cc1)Nc1ccc(CCCCF)c(C(F)(F)F)c1` [Compound 34, 1-[4-(4-Fluorobutyl)-3-(trifluoromethyl)phenyl]-3-[4-(1H-pyrrolo[2,3-b]pyridin-4-yloxy)phenyl]urea], the solubility at 20 h in data set [7] is 21 µg/mL (≈ 43.2 µM).

In data set [7], `O=C(Nc1ccc(Oc2ccnc3[nH]ncc23)cc1)Nc1ccc(CCCCF)c(C(F)(F)F)c1` [Compound 35, 1-[4-(4-Fluorobutyl)-3-(trifluoromethyl)phenyl]-3-[4-(1H-pyrazolo[3,4-b]pyridin-4-yloxy)phenyl]urea] gave a solubility at 20 h of 18 µg/mL (≈ 36.9 µM).

With `O=C(Nc1ccc(Oc2ccnc3[nH]ccc23)cc1)Nc1cc(CCCCF)cc(C(F)(F)F)c1` [Compound 38, 1-[3-(4-Fluorobutyl)-5-(trifluoromethyl)phenyl]-3-[4-(1H-pyrrolo[2,3-b]pyridin-4-yloxy)phenyl]urea], the IC50 in data set [5] amounted to 64 nM; in data set [6] it was 1.3 nM.

Take `O=C(Nc1ccc(Oc2ccnc3[nH]ccc23)cc1)Nc1cc(CCCC(F)F)cc(C(F)(F)F)c1` [Compound 41, 1-[3-(4,4-Difluorobutyl)-5-(trifluoromethyl)phenyl]-3-[4-(1H-pyrrolo[2,3-b]pyridin-4-yloxy)phenyl]urea]: the IC50 in data set [5] turned out to be 82 nM; in data set [6], 3.5 nM.

Turning to `O=C(Nc1ccc(Oc2ccnc3[nH]ccc23)cc1)Nc1ccc2c(CCF)cccc2c1` [Compound 42, 1-[5-(2-Fluoroethyl)naphthalen-2-yl]-3-[4-(1H-pyrrolo[2,3-b]pyridin-4-yloxy)phenyl]urea], the IC50 turned out to be 4400 nM in data set [1], 50 nM in data set [2], 5900 nM in data set [3] and 6 nM in data set [4].

As for `O=C(Nc1ccc(Oc2ccnc3[nH]ccc23)cc1)Nc1ccc2c(CCCF)cccc2c1` [Compound 46, 1-[5-(3-Fluoropropyl)naphthalen-2-yl]-3-[4-(1H-pyrrolo[2,3-b]pyridin-4-yloxy)phenyl]urea], the IC50 in data set [1] stood at 3300 nM; in data set [2], 15 nM; in data set [3], 4100 nM.

Regarding `O=C(Nc1ccc(Oc2ccnc3[nH]ccc23)cc1)Nc1cc(C(F)(F)F)cc(C(F)(F)F)c1` [Compound 50, 1-[3,5-Bis(trifluoromethyl)phenyl]-3-[4-(1H-pyrrolo[2,3-b]pyridin-4-yloxy)phenyl]urea], the solubility at 20 h in data set [7] was 35 µg/mL (≈ 72.9 µM).

Consider `CCc1ccc(NC(=O)Nc2ccc(Oc3ccnc4[nH]ccc34)cc2)cc1C(F)(F)F` [Compound 55, 1-(4-Ethyl-3-trifluoromethyl-phenyl)-3-[4-(1H-pyrrolo[2,3-b]pyridin-4-yloxy)phenyl]urea], for which the IC50 in data set [1] was 1500 nM; in data set [2], 7.2 nM; in data set [3], 1400 nM; in data set [5], 47 nM; in data set [6], 8.5 nM.

In the case of `C=Cc1ccc(NC(=O)Nc2ccc(Oc3ccnc4[nH]ccc34)cc2)cc1C(F)(F)F` [Compound 56, 1-[4-(1H-Pyrrolo[2,3-b]pyridin-4-yloxy)phenyl]-3-(3-trifluoromethyl-4-vinyl-phenyl)urea], the IC50 in data set [1] was determined as 2200 nM; in data set [2] it was 12 nM; in data set [3], 3100 nM; in data set [5], 70 nM; in data set [6] it was 16 nM.

Regarding `O=C(Nc1ccc(F)cc1)Nc1ccc(Oc2ccnc3[nH]ccc23)cc1` [Compound B, reference compound], in data set [1], the “proliferation inhibitory activity for HCT116 cells (in words)” value is given as “does not have proliferation inhibitory activity”. The “Raf-1 inhibitory activity (in words)” value in data set [5] was “does not have Raf-1 inhibitory activity”.
